Laboratory results reported in patent US10112951B2, “PDE1 inhibitor” (Eli Lilly and Company, priority 2016, dated 2018).

Legend:
Format in all cases: biochemical
[1] = biological target: T1, PDE8A (Homo sapiens, UniProt O60658); test: PDE enzyme assay using [3H]cAMP as substrate, PDE8A; conditions: [3H]cAMP 47 nM; enzyme 0.06 nM; read-out: IC50 (nM) of Example 1, PDE8A
T1 construct: full-length human PDE8A (NP_002596.1); Flag (N); made in house; host or cells: Sf9 (baculovirus, pFastBac1)
Text: (§1) The nucleotide sequences encoding full-length human PDE1A (NP_001003683.1), PDE1C (NP_005011.1), PDE5A (NP_001074.2), PDE7B (NP_061818.1) and PDE9A (NP_002597.1) are inserted into pFastBac1 (Invitrogen) vector with an N-terminal HIS tag. The nucleotide sequences encoding full-length human PDE4D (NP_006194.2) and catalytic domain (residue 641-1141) of PDE3A (NP_000912.3) are inserted into pFastBac1 (Invitrogen) vector with a C-terminal HIS tag. The nucleotide sequences encoding full-length human PDE8A (NP_002596.1) and PDE11A (AAI12394.1) are inserted into pFastBac1 (Invitrogen) vector with an N-terminal Flag tag. The nucleotide sequences encoding full-length human PDE10A (AAD32595.1) are inserted into pFastBac1 (Invitrogen) vector with a C-terminal Flag-His tag. […]
(§2) All 3′, 5′ cyclic nucleotide phosphodiesterase (PDE) enzyme activities are measured with a radiometric enzyme assay based on SPA detection system (scintillation proximity assay). […] Samples are read 12 hours later in a MICROBETA™ TRILUX® Counter. […] IC50 values are calculated by plotting the normalized data vs. log [compound] and fitting the data using a four parameter logistic equation.
(§3) The following phosphodiesterase activities are measured using [^3H]cAMP as reaction substrate: PDE3A (catalytic domain), PDE4D, PDE7B and PDE8A. […]

[2] = biological target: T2, PDE6AB (PDE6A/6B dimer) (Homo sapiens, UniProt P16499+P35913); test: PDE enzyme assay using [3H]cGMP as substrate, PDE6AB; conditions: [3H]cGMP 80 nM; enzyme 5 nM; read-out: IC50 (nM) of Example 1, PDE 6AB
T2 construct: full-length human PDE6A (NP_000431.2); full-length human PDE6A (NP_000431.2) and PDE6B (AAH00249.1); His (N); Flag (N); made in house; host or cells: Sf9 (baculovirus, pFastBacDual)
Text: as §1, §2
(§4) The following phosphodiesterase activities are measured using [^3H]cGMP as reaction substrate: PDE2A, PDE5A, PDE6A/6B, PDE9A, PDE10A and PDE11A. […]

[3] = biological target: T3, PDE1C (Homo sapiens, UniProt Q14123); test: Ca2+-calmodulin dependent PDE enzyme assay (SPA), PDE1C; conditions: [3H]cAMP 47 nM; enzyme 0.0012 nM; Ca2+/calmodulin buffer pH 7.5; read-out: IC50 (nM) of Example 1, PDE 1C
T3 construct: full-length human PDE1A (NP_001003683.1), PDE1C (NP_005011.1); His (N); made in house; host or cells: Sf9 (baculovirus, pFastBac1)
Text: (§5) The nucleotide sequences encoding full-length human PDE1A (NP_001003683.1), PDE1C (NP_005011.1), PDE5A (NP_001074.2), PDE7B (NP_061818.1) and PDE9A (NP_002597.1) are inserted into pFastBac1 (Invitrogen) vector with an N-terminal HIS tag. The nucleotide sequences encoding full-length human PDE4D (NP_006194.2) and catalytic domain (residue 641-1141) of PDE3A (NP_000912.3) are inserted into pFastBac1 (Invitrogen) vector with a C-terminal HIS tag. The nucleotide sequences encoding full-length human PDE8A (NP_002596.1) and PDE11A (AAI12394.1) are inserted into pFastBac1 (Invitrogen) vector with an N-terminal Flag tag. The nucleotide sequences encoding full-length human PDE10A (AAD32595.1) are inserted into pFastBac1 (Invitrogen) vector with a C-terminal Flag-His tag. The nucleotide sequences encoding full-length human PDE6A (NP_000431.2) and PDE6B (AAH00249.1) are inserted into pFastBacDual (Invitrogen) vector with an N-terminal HIS tag and N-terminal Flag tag, respectively, for production of PDE6A/6B dimer. […]
as §2, with “equation. […]” for “equation.”

[4] = biological target: T4, PDE4D (Homo sapiens, UniProt Q08499); test: PDE enzyme assay using [3H]cAMP as substrate, PDE4D; conditions: [3H]cAMP 47 nM; enzyme 0.021 nM; read-out: IC50 (nM) of Example 1, PDE4D
T4 construct: full-length human PDE4D (NP_006194.2); His (C); made in house; host or cells: Sf9 (baculovirus, pFastBac1)
T4 sequence (Q08499 1-673 isoform Q08499-2): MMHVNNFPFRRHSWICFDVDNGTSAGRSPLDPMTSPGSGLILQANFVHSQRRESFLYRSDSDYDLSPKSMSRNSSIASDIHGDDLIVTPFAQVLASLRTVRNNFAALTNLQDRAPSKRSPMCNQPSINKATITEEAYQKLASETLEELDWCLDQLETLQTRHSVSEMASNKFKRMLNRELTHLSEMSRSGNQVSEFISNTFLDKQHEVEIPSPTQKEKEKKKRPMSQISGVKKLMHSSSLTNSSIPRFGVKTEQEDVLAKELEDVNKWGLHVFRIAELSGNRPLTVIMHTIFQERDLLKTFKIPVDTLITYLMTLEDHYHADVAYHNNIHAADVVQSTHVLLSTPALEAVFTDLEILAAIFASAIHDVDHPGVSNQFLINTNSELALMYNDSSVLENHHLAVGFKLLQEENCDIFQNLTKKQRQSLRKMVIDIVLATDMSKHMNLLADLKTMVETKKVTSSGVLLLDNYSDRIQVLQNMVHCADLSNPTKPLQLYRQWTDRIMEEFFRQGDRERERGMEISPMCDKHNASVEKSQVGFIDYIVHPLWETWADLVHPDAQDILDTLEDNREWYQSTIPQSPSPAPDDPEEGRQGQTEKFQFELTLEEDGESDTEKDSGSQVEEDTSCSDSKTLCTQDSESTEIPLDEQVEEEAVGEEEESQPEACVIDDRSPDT
Text: as §1, §2, §3

[5] = biological target: T5, PDE3A (catalytic domain) (Homo sapiens, UniProt Q14432); test: PDE enzyme assay using [3H]cAMP as substrate, PDE3A; conditions: [3H]cAMP 47 nM, enzyme 0.008 nM, read-out: IC50 (nM) of Example 1, PDE3A
T5 construct: catalytic domain (residue 641-1141) of PDE3A (NP_000912.3); His (C); made in house; host or cells: Sf9 (baculovirus, pFastBac1)
T5 sequence (Q14432 641-1141): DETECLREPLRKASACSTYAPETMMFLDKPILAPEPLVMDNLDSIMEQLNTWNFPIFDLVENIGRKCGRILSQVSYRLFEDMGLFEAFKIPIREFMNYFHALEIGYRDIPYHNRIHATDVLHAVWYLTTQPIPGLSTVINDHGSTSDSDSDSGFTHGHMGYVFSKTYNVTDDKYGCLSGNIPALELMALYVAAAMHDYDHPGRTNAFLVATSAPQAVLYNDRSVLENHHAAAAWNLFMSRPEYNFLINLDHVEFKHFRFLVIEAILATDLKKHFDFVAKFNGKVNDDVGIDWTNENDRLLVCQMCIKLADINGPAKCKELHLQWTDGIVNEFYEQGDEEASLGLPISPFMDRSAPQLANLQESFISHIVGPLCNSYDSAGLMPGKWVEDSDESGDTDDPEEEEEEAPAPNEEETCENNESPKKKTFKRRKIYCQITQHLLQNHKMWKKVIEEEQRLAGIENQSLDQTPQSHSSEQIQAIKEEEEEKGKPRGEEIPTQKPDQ
Text: as §1, §2, §3

[6] = biological target: T6, PDE2A (Homo sapiens, UniProt O00408); test: PDE enzyme assay using [3H]cGMP as substrate, PDE2A; conditions: [3H]cGMP 80 nM; enzyme 0.2 nM; read-out: IC50 (nM) of Example 1, PDE2A
T6 construct: full-length human PDE1B (NP_000915.1) and PDE2A (NP_002590.1); His (C); made in house; host or cells: Sf9 (pIEX4)
T6 sequence (O00408 whole entry): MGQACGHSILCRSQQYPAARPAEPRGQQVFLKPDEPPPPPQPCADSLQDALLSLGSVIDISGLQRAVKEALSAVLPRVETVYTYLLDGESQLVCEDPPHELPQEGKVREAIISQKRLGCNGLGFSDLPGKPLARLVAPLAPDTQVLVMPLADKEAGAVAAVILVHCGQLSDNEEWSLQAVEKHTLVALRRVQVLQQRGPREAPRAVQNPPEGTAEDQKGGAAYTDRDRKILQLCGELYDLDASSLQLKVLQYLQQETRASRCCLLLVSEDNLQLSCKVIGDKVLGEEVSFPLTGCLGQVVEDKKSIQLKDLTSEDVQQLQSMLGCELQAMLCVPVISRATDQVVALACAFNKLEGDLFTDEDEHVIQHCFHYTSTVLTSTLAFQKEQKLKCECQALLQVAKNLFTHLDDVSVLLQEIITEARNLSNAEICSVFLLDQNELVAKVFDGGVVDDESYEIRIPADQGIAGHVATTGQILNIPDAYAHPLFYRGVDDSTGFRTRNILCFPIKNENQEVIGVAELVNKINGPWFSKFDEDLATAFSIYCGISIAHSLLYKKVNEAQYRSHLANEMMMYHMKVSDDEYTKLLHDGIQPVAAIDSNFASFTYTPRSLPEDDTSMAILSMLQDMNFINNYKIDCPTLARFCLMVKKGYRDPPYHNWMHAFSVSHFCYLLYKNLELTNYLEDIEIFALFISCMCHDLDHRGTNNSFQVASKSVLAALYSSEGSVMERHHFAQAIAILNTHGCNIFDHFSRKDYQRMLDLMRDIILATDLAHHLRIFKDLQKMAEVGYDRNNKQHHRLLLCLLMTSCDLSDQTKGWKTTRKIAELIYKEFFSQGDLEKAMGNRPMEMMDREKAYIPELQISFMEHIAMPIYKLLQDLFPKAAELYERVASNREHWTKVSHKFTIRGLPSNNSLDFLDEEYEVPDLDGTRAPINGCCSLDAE
Text: as §1, §2, §4

[7] = biological target: T7, PDE5A (Homo sapiens, UniProt O76074); test: PDE enzyme assay using [3H]cGMP as substrate, PDE5A; conditions: [3H]cGMP 80 nM; enzyme 0.002 nM; read-out: IC50 (nM) of Example 1, PDE5A
T7 construct: full-length human PDE1A (NP_001003683.1), PDE1C (NP_005011.1), PDE5A (NP_001074.2); His (N); made in house; host or cells: Sf9 (baculovirus, pFastBac1)
Text: as §1, §2, §4

[8] = biological target: T8, PDE9A (Homo sapiens, UniProt O76083); test: PDE enzyme assay using [3H]cGMP as substrate, PDE9A; conditions: [3H]cGMP 20 nM; enzyme 1 nM; read-out: IC50 (nM) of Example 1, PDE9A
T8 construct: full-length human PDE1A (NP_001003683.1), PDE1C (NP_005011.1), PDE5A (NP_001074.2), PDE7B (NP_061818.1) and PDE9A (NP_002597.1); His (N); made in house; host or cells: Sf9 (baculovirus, pFastBac1)
T8 sequence (O76083 whole entry): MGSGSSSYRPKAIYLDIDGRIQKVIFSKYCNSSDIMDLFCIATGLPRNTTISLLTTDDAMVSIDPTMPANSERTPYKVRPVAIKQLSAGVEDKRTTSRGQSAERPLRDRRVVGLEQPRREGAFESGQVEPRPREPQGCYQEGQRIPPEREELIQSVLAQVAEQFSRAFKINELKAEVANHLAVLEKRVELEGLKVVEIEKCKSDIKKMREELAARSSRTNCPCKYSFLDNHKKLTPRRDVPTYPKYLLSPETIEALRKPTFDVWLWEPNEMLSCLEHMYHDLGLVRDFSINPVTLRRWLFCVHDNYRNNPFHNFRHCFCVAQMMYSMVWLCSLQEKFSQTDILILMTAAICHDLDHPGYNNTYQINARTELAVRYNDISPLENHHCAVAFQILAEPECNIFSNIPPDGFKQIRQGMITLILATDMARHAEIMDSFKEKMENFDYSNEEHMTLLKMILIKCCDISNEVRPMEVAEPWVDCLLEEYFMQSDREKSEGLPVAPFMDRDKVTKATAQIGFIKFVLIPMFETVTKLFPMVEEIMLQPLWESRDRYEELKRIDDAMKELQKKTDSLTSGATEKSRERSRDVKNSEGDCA
Text: as §1, §2, §4

[9] = biological target: T9, PDE10A (Homo sapiens, UniProt Q9Y233); test: PDE enzyme assay using [3H]cGMP as substrate, PDE10A; conditions: [3H]cGMP 80 nM; enzyme 0.03 nM; read-out: IC50 (nM) of Example 1, PDE10A
T9 construct: full-length human PDE10A (AAD32595.1); Flag-His (C); made in house; host or cells: Sf9 (baculovirus, pFastBac1)
Text: as §1, §2, §4

[10] = biological target: T10, PDE11A (Homo sapiens, UniProt Q9HCR9); test: PDE enzyme assay using [3H]cGMP as substrate, PDE11A; conditions: [3H]cGMP 80 nM; enzyme 0.03 nM; read-out: IC50 (nM) of Example 1, PDE11A
T10 construct: full-length human PDE8A (NP_002596.1) and PDE11A (AAI12394.1); Flag (N); made in house; host or cells: Sf9 (baculovirus, pFastBac1)
T10 sequence (Q9HCR9 whole entry): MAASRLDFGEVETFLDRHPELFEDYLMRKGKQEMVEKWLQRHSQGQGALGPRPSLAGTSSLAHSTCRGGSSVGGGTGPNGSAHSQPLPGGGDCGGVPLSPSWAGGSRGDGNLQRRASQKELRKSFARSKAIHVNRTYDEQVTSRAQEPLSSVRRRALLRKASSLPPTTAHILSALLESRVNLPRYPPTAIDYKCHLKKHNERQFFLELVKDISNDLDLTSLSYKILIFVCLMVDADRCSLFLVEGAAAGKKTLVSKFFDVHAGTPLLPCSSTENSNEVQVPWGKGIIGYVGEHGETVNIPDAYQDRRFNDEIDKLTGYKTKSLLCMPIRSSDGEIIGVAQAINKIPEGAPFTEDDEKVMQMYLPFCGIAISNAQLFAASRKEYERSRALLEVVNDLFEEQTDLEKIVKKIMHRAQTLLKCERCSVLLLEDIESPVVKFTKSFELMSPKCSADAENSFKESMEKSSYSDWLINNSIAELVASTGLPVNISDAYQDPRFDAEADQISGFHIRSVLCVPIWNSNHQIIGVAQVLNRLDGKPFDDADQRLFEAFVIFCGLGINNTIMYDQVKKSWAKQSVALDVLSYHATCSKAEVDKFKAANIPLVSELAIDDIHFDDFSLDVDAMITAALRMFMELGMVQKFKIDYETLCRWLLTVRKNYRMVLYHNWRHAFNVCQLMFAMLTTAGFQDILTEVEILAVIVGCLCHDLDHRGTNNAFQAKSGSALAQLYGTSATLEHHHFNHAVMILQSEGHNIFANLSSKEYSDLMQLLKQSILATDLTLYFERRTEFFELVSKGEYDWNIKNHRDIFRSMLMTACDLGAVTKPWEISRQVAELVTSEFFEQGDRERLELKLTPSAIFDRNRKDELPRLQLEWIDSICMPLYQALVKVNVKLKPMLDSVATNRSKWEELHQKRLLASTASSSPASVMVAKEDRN
Text: as §1, §2, §4

[11] = biological target: T11, PDE7B (Homo sapiens, UniProt Q9NP56); test: PDE enzyme assay using [3H]cAMP as substrate, PDE7B; conditions: [3H]cAMP 47 nM; enzyme 0.5 nM; read-out: IC50 (nM) of Example 1, PDE7B
T11 construct: full-length human PDE1A (NP_001003683.1), PDE1C (NP_005011.1), PDE5A (NP_001074.2), PDE7B (NP_061818.1); His (N); made in house; host or cells: Sf9 (baculovirus, pFastBac1)
T11 sequence (Q9NP56 whole entry): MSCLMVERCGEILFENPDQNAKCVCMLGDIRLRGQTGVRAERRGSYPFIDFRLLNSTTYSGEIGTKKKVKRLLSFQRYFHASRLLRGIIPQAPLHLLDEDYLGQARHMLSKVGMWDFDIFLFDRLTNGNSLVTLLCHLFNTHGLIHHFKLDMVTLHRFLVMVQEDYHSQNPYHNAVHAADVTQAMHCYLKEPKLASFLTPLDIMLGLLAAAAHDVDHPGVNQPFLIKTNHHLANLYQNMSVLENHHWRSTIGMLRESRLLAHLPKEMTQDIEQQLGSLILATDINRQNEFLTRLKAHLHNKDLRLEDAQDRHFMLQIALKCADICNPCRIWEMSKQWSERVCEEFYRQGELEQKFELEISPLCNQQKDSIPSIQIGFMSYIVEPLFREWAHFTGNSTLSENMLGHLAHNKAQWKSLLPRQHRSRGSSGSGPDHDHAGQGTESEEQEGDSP
Text: as §1, §2, §3

[12] = biological target: T12, PDE1B (Homo sapiens, UniProt Q01064); test: Ca2+-calmodulin dependent PDE enzyme assay (SPA), PDE1B; conditions: [3H]cAMP 47 nM; enzyme 0.074 nM; Ca2+/calmodulin buffer pH 7.5; read-out: IC50 (nM) of Example 1, PDE 1B
T12 construct: full-length human PDE1B (NP_000915.1); His (C); made in house; host or cells: Sf9 (pIEX4)
Text: as §5
as §2, with “equation. […]” for “equation.”

[13] = biological target: T13, PDE1A (Homo sapiens, UniProt P54750); test: Ca2+-calmodulin dependent PDE enzyme assay (SPA), PDE1A; conditions: [3H]cAMP 47 nM; enzyme 0.25 nM; Ca2+/calmodulin buffer pH 7.5; read-out: IC50 (nM) of Example 1, PDE 1A
T13 construct: full-length human PDE1A (NP_001003683.1); His (N); made in house; host or cells: Sf9 (baculovirus, pFastBac1)
Text: as §5
as §2, with “equation. […]” for “equation.”

T1 sequence (O60658 whole entry): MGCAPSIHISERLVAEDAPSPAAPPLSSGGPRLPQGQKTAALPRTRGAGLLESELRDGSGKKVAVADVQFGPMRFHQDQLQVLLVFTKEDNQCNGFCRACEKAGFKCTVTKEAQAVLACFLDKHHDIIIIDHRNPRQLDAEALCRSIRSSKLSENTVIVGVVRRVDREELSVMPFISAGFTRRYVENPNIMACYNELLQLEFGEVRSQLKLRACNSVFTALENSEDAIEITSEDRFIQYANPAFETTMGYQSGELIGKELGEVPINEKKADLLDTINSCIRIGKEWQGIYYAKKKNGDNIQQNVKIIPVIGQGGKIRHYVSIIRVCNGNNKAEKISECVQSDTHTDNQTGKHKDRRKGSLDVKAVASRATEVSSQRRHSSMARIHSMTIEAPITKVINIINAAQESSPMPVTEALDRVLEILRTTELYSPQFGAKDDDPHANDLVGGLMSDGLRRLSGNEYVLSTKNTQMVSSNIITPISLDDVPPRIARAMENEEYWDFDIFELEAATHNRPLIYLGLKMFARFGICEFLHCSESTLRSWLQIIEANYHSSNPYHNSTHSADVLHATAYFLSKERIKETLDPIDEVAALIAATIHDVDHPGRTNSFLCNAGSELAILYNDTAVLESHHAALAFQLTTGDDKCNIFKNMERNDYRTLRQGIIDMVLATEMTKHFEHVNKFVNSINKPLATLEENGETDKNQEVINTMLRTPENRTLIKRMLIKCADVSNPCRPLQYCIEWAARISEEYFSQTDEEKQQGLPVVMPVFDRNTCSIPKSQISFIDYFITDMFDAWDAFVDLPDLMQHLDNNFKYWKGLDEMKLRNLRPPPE

O=c1c2nnc(C3(C4CC4)CC3)n2c2c(n1CC1CC1)CCCC2 [Example 1, 1-(1-cyclopropylcyclopropyl)-5-(cyclopropylmethyl)-6,7,8,9-tetrahydro-[1,2,4]triazolo[4,3-a]quinoxalin-4-one]
IC50 [1]: > 10000 nM | IC50 [2]: > 10000 nM | IC50 [3]: 3.05 nM | IC50 [4]: 7060 nM | IC50 [5]: > 100000 nM | IC50 [6]: > 10000 nM | IC50 [7]: > 10000 nM | IC50 [8]: > 10000 nM | IC50 [9]: > 10000 nM | IC50 [10]: 2970 nM | IC50 [11]: 2180 nM | IC50 [12]: 4.91 nM | IC50 [13]: 3.41 nM
